The text below walks through data of PubChem BioAssay AID206 (DTP/NCI, 2004).

“And” between values parts separate entries of the source, which are not always exact repeats. Identical values can stand only once. Results filed as inconclusive are left out.

The subject of this assay is nude mice, HT29 intrarenal xenograft, tumor weight T/C. Kind of assay: NCI In Vivo Anticancer Drug Screen. Data for tumor model HT29;CX-1 Human Adenocarcinoma (MER+) (intrarenal inoculation) in NU/NU Swiss (nude) mice. Conditions: endpoint: mean tumor weight change, higher = larger tumour. Put shortly: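 Endpoint measured as tumor size or survival; ratio reported is treated group over vehicle controls.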

Setting [1] is: dose: 4.0 mg/kg/injection, schedule: Q01DX010 (sc), vehicle: saline.
Where [2] appears, read: dose: 8.0 mg/kg/injection, schedule: Q01DX010 (sc), vehicle: saline.
The mark [3] stands for this setting: dose: 150.0 mg/kg/injection, schedule: Q04DX004 (sc), vehicle: saline with Tween-80.
Where [4] appears, read: dose: 300.0 mg/kg/injection, schedule: Q04DX004 (sc), vehicle: saline with Tween-80.
Where [5] appears, read: dose: 600.0 mg/kg/injection, schedule: Q04DX004 (sc), vehicle: saline with Tween-80.
Setting [6] is: dose: 100.0 mg/kg/injection, schedule: Q04DX004 (sc), vehicle: saline with Tween-80.
The mark [7] stands for this setting: dose: 600.0 mg/kg/injection, schedule: Q04DX004 (sc), vehicle: saline.
Setting [8] is: dose: 1200.0 mg/kg/injection, schedule: Q04DX004 (sc), vehicle: saline.
[9] abbreviates: dose: 75.0 mg/kg/injection, schedule: Q04DX004 (sc), vehicle: suspension in saline.
Where [10] appears, read: dose: 15.0 mg/kg/injection, schedule: Q04DX004 (sc), vehicle: saline.
[11] abbreviates: dose: 30.0 mg/kg/injection, schedule: Q04DX004 (sc), vehicle: saline.

Consider `O=c1[nH]c(=O)n([C@H]2CCCO2)cc1F`, for which the T/C is, setting by setting: (dose: 100.0 mg/kg/injection, schedule: Q01DX010 (sc), vehicle: Klucel (hydroxypropylcellulose) (HPC)) 55 % of control; (dose: 200.0 mg/kg/injection, schedule: Q01DX010 (sc), vehicle: Klucel (hydroxypropylcellulose) (HPC)) 103 % of control.
For `N[C@H](C(=O)O)[C@@H]1CC(Cl)=NO1`, the T/C is 21 % of control under setting [1] and 35 % of control under setting [2].
For `C=CCNc1nc2c(s1)CCc1cc(OC)c(OC)cc1-2`, the T/C under setting [3] is 38 % of control; the T/C under setting [4] was 114 % of control; the T/C under setting [5] was 113 % of control; the T/C (dose: 1200.0 mg/kg/injection, schedule: Q04DX004 (sc), vehicle: saline with Tween-80) is 80 % of control.
As for `O=C(O)C1Cc2nc[nH]c2CN1CO` (stereo unspecified), the T/C reads like this: under setting [6], 90 % of control; (dose: 1600.0 mg/kg/injection, schedule: Q04DX004 (sc), vehicle: saline with Tween-80) 108 % of control.
As for `COC(=O)C(N)Cc1ccc(O)c(O)c1` (stereo unspecified), the T/C by setting is: (dose: 225.0 mg/kg/injection, schedule: Q04DX004 (sc), vehicle: saline) 74 % of control; (dose: 450.0 mg/kg/injection, schedule: Q04DX004 (sc), vehicle: saline) 104 % of control; (dose: 900.0 mg/kg/injection, schedule: Q04DX004 (sc), vehicle: saline) 77 % of control; (dose: 1800.0 mg/kg/injection, schedule: Q04DX004 (sc), vehicle: saline) 55 % of control.
For `CC(=O)CC(=O)CCC(=O)O`, the T/C is, setting by setting: (dose: 150.0 mg/kg/injection, schedule: Q04DX004 (sc), vehicle: saline) 111 % of control; under setting [7], 113 % of control; under setting [8], 104 % of control.
As for `O=C1c2c(O)ccc(O)c2C(=O)c2c(NCCNCCO)ccc(NCCNCCO)c21`, the T/C reads like this: (dose: 0.13 mg/kg/injection, schedule: Q01DX010 (sc), vehicle: acid diluted with saline) 89 % of control; (dose: 0.25 mg/kg/injection, schedule: Q01DX010 (sc), vehicle: acid diluted with saline) 75 % of control; (dose: 2.5 mg/kg/injection, schedule: Q04DX004 (sc), vehicle: water) 73 % of control; (dose: 5.0 mg/kg/injection, schedule: Q04DX004 (sc), vehicle: water) 104 % of control; (dose: 10.0 mg/kg/injection, schedule: Q04DX004 (sc), vehicle: water) 76 % of control.
In the case of `COc1cc([C@@H]2c3cc4c(c(O)c3C[C@H]3COC(=O)[C@@H]32)OCO4)cc(OC)c1OC`, the T/C reads like this: (dose: 2.0 mg/kg/injection, schedule: Q01DX010 (sc), vehicle: saline) 46 % of control; under setting [1], 58 % of control; under setting [2], 25 % of control.
Turning to `O=C1NCC(Br)C(=O)N1` (stereo unspecified), the T/C was 68 % of control under setting [3], 50 % of control under setting [4] and 60 % of control under setting [5].
Regarding `Nc1ncnc2c(C3OC(CO)C(O)C3O)[nH]nc12` (stereo unspecified), the T/C under setting [9] is 39 % of control.
In the case of `CN(C1=NS(=O)(=O)N=C(N(C)c2ccccc2)O1)c1ccccc1`, the T/C was 95 % of control (dose: 225.0 mg/kg/injection, schedule: Q04DX004 (sc), vehicle: Klucel (hydroxypropylcellulose) (HPC)); 153 % of control (dose: 450.0 mg/kg/injection, schedule: Q04DX004 (sc), vehicle: Klucel (hydroxypropylcellulose) (HPC)); 168 % of control (dose: 1800.0 mg/kg/injection, schedule: Q04DX004 (sc), vehicle: Klucel (hydroxypropylcellulose) (HPC)).
For the molecule `COc1cc2cc3c4cc(OC)c(OC)cc4cc[n+]3c(C)c2cc1OC` (tested in a mixture with another compound), the T/C reads like this: (dose: 50.0 mg/kg/injection, schedule: Q01DX010 (sc), vehicle: saline) 76 % of control; (dose: 100.0 mg/kg/injection, schedule: Q01DX010 (sc), vehicle: saline) 68 % of control.
Regarding `C1=CCOCOC1`, the T/C (dose: 37.5 mg/kg/injection, schedule: Q04DX004 (sc), vehicle: saline with Tween-80) is 69 % of control; the T/C (dose: 75.0 mg/kg/injection, schedule: Q04DX004 (sc), vehicle: saline with Tween-80) was 70 % of control; the T/C under setting [3] is 68 % of control; the T/C under setting [4] was 72 % of control.
For `CC[n+]1c(-c2ccccc2)c2cc(N)ccc2c2ccc(N)cc21`, the T/C by setting is: under setting [10], 119 % of control; under setting [11], 66 % of control; (dose: 60.0 mg/kg/injection, schedule: Q04DX004 (sc), vehicle: saline) 53 % of control.
On to `Cc1c2ccccc2cc2cccc[n+]12`, for which the T/C is, setting by setting: (dose: 7.5 mg/kg/injection, schedule: Q04DX004 (sc), vehicle: saline) 116 % of control; under setting [10], 63 % of control; under setting [11], 93 % of control.
For the molecule `CC(C)=CC(=O)OC1C2C(C)=CC(=O)C(O)C2(C)C2C3(O)OCC24C(CC(=O)OC14)C(C)C3O` (stereo unspecified), the T/C reads like this: (dose: 1.25 mg/kg/injection, schedule: Q04DX004 (sc), vehicle: distilled water + Tween-80) 67 % of control and 76 % of control; (dose: 1.25 mg/kg/injection, schedule: Q04DX004 (sc), vehicle: saline with Tween-80) 70 % of control; (dose: 5.0 mg/kg/injection, schedule: Q04DX004 (sc), vehicle: saline with Tween-80) 44 % of control.
On to `C1CC[N-]CC1.[Cl][Pt+2][Cl].[NH-]C1CC1`, for which the T/C reads like this: (dose: 50.0 mg/kg/injection, schedule: Q04DX004 (sc), vehicle: water) 51 % of control and 54 % of control; (dose: 100.0 mg/kg/injection, schedule: Q04DX004 (sc), vehicle: water) 17 % of control.
`CC(=O)C(=O)O.CC(=O)C(=O)O.[NH-]C1CCCCC1[NH-].[Pt+2]` (stereo unspecified): the T/C runs as follows: (dose: 15.0 mg/kg/injection, schedule: Q04DX004 (sc), vehicle: other) 64 % of control; (dose: 30.0 mg/kg/injection, schedule: Q04DX004 (sc), vehicle: other) 64 % of control; (dose: 60.0 mg/kg/injection, schedule: Q04DX004 (sc), vehicle: other) 47 % of control.
Consider `N[C@@H](Cc1ccc(N(CCCl)CCCl)cc1)C(=O)O`, for which the T/C was 47 % of control (dose: 4.0 mg/kg/injection, schedule: Q04DX004 (ip), vehicle: saline); 9 % of control (dose: 6.0 mg/kg/injection, schedule: Q04DX004 (ip), vehicle: saline); -5 % of control (dose: 9.0 mg/kg/injection, schedule: Q04DX004 (ip), vehicle: saline).
Regarding `CN1C(=O)CC2(CCN(CCCC(=O)c3ccc(F)cc3)CC2)C1=O`, the T/C under setting [9] is 120 % of control.
As to `Nc1cccc(=O)[nH]1`, the T/C reads like this: (dose: 300.0 mg/kg/injection, schedule: Q04DX004 (sc), vehicle: saline) 115 % of control; under setting [7], 96 % of control; under setting [8], 87 % of control; (dose: 2400.0 mg/kg/injection, schedule: Q04DX004 (sc), vehicle: saline) 79 % of control.
As for `O=C(Nc1cccc2c(OC(=O)C(Cl)Cl)c(N=Nc3ccc(S(=O)(=O)Nc4nccs4)cc3)cc(N=Nc3ccc(S(=O)(=O)Nc4nccs4)cc3)c12)C(Cl)Cl` (tested in a mixture with another compound), the T/C is, setting by setting: (dose: 50.0 mg/kg/injection, schedule: Q04DX004 (sc), vehicle: saline with Tween-80) 78 % of control; under setting [6], 94 % of control; (dose: 200.0 mg/kg/injection, schedule: Q04DX004 (sc), vehicle: saline with Tween-80) 58 % of control; (dose: 400.0 mg/kg/injection, schedule: Q04DX004 (sc), vehicle: saline with Tween-80) 56 % of control.
Take `CCOC(=O)c1cn(C)c2c1C(O)=C(C(=O)OC)CC(=O)N2`: the T/C runs as follows: (dose: 225.0 mg/kg/injection, schedule: Q04DX004 (sc), vehicle: saline with Tween-80) 95 % of control; (dose: 450.0 mg/kg/injection, schedule: Q04DX004 (sc), vehicle: saline with Tween-80) 52 % of control; (dose: 1800.0 mg/kg/injection, schedule: Q04DX004 (sc), vehicle: saline with Tween-80) 62 % of control.
Regarding `CSc1cc(=O)n2c3ccccc3c3ccnc1c32`, the T/C runs as follows: (dose: 80.0 mg/kg/injection, schedule: Q04DX004 (sc), vehicle: saline with Tween-80) 88 % of control; (dose: 160.0 mg/kg/injection, schedule: Q04DX004 (sc), vehicle: saline with Tween-80) 91 % of control; (dose: 320.0 mg/kg/injection, schedule: Q04DX004 (sc), vehicle: saline with Tween-80) 110 % of control; (dose: 640.0 mg/kg/injection, schedule: Q04DX004 (sc), vehicle: saline with Tween-80) 58 % of control.
